Experimental data as given in publication PMC6413121, “Antiplasmodial and Cytotoxic Cytochalasins from an Endophytic Fungus, Nemania sp. UM10M, Isolated from a Diseased Torreya taxifolia Leaf” (Molecules, 2019).
Like-named read-outs stand apart in the source and are kept apart here.

Experiments:
[1] = system: P. falciparum D6 (chloroquine sensitive) strain; experiment: microbe, parasite or virus in culture; type: cell-based, Plasmodium falciparum; conditions: for Chloroquine-Sensitive (D6)-Strain S. I.: selectivity index = IC50 for cytotoxicity (Vero)/IC50 for antiplasmodial activity; for IC50: Plasmodium falciparum
[2] = system: Vero cells (mammalian kidney fibroblasts); experiment: in vitro; type: cell-based; conditions: highest concentration tested […]
[3] = system: P. falciparum W2 (chloroquine resistant) strain; experiment: microbe, parasite or virus in culture; type: cell-based, Plasmodium falciparum; conditions: for Chloroquine-Resistant (W2)-Strain S. I.: selectivity index = IC50 for cytotoxicity (Vero)/IC50 for antiplasmodial activity; for IC50: Plasmodium falciparum
[4] = system: P. berghei (NK-65 strain); experiment: In vivo antimalarial assay in mice infected with P. berghei; set-up: species or system mice (Swiss Webster); conditions: for Day of Death (post infection): one value per animal; for % Parasitemia Suppression Day 5 / % Parasitemia Suppression Day 7: vehicle control = 100% parasitemia, < 80% non-significant
Procedure: The protocol for in vivo antimalarial evaluation was approved by the University of Mississippi Institutional Animal Care and Use Committee (IACUC). The in vivo antimalarial activity was determined in mice infected with P. berghei (NK-65 strain). Male mice (Swiss Webster strain) weighing 18-20 g were intraperitoneally inoculated with 2 × 10^7 parasitized red blood cells obtained from a highly infected donor mouse. Mice were divided into different groups with five mice in each group. Compound stocks were prepared in DMSO and administered orally to the mice through gavage two hours after the infection (day 0). The animals were treated once daily for consecutive days (day 0 to 2) and were closely observed for at least 2 h after every dose for any apparent signs of toxicity. Blood smears were prepared on different days starting from 5 days post infection (through 28 days) by clipping the tail end, stained with Giemsa, and the slides were observed under microscope for determination of parasitemia. Mice without parasitemia through day 28 postinfection were considered as cured. Also, suppression in development of parasitemia was computed by comparing the parasitemia in the control vehicle treated group and groups treated with compound. The mean survival time was also computed for control and treated groups. The results are presented as parasitemia suppression of day 5 post treatment, mean survival time of mice in each group, cure and survival graphs computed by Prism 6.0. (San Diego, CA, USA).

[5] = system: lettuce (Lactuca sativa cv. L., Iceberg); experiment: In vitro phytotoxicity assay, lettuce; conditions: 1 mg/mL; 10% acetone; scale of 0 to 5, 0 = no effect, 5 = no growth
Procedure: (§1) Herbicidal or phytotoxic activity of the extract and compounds was performed according to the published procedure using bentgrass (Agrostis stolonifera) and lettuce (Lactuca sativa cv. L., Iceberg), in 24-well plates. Phytotoxicity was ranked visually. The ranking of phytotoxic activity was based on a scale of 0 to 5 with 0 showing no effect and 5 no growth.

in vitro [6] = type: cell-based; conditions: African green monkey
in vitro [7] = type: cell-based, human; conditions: human, concentration causing 50% growth inhibition
Procedure: (§2) In vitro cytotoxicity was determined against a panel of mammalian cells that included kidney fibroblast (Vero), kidney epithelial (LLC-PK11), malignant melanoma (SK-MEL), oral epidermal carcinoma (KB), breast ductal carcinoma (BT-549), and ovary carcinoma (SK-OV-3) cells Doxorubicin was used as a positive control.

in vitro [8] = type: cell-based, pig; conditions: pig; concentration causing 50% growth inhibition; read-out: Cytotoxic activity IC50, LLC-PK11
Procedure: as §2

[9] = system: bentgrass (Agrostis stolonifera); experiment: In vitro phytotoxicity assay, bentgrass; conditions: 1 mg/mL; 10% acetone; scale of 0 to 5, 0 = no effect, 5 = no growth
Procedure: as §1

[10] = intraperitoneal, subcutaneous, or intravenous injections up to 100 mg/kg/day; cited from earlier work
[11] = system: SK-OV-3 (human ovary carcinoma); experiment: in vitro; type: cell-based; conditions: concentration causing 50% growth inhibition; read-out: Cytotoxic activity IC50, SK-OV-3
Procedure: as §2

[12] = system: KB (human epidermal carcinoma); experiment: in vitro; type: cell-based; conditions: concentration causing 50% growth inhibition; read-out: Cytotoxic activity IC50, KB
Procedure: as §2

[13] = system: BT-549 (human breast carcinoma, ductal); experiment: in vitro; type: cell-based; conditions: concentration causing 50% growth inhibition; read-out: Cytotoxic activity IC50, BT-549
Procedure: as §2

[14] = system: SK-MEL (human malignant melanoma); experiment: in vitro; type: cell-based; conditions: concentration causing 50% growth inhibition; read-out: Cytotoxic activity IC50, SK-MEL
Procedure: as §2

[15] = system: LLC-PK11 (pig kidney epithelial); experiment: in vitro; type: cell-based; conditions: concentration causing 50% growth inhibition; read-out: Cytotoxic activity IC50, LLC-PK11
Procedure: as §2

[16] = W2, read-out: Chloroquine-Resistant (W2)-Strain IC50
[17] = W2, read-out: Chloroquine-Resistant (W2)-Strain IC50 (ng/mL)
[18] = PO, 100 mg/kg × 3 days, P. berghei
[19] = P. falciparum D6, read-out: Chloroquine-Sensitive (D6)-Strain IC50
[20] = P. falciparum D6, read-out: Chloroquine-Sensitive (D6)-Strain IC50 (ng/mL)
[21] = highest concentration tested […], read-out: Cytotoxicity to Vero Cells IC50
[22] = read-out: Cytotoxicity to Vero cells
[23] = read-out: Cytotoxic activity IC50, BT-549
[24] = read-out: Cytotoxic activity IC50, KB
[25] = read-out: Cytotoxic activity IC50, SK-MEL
[26] = read-out: Cytotoxic activity IC50, SK-OV-3

SMILES | Chloroquine-Sensitive (D6)-Strain S. I. [1] | Chloroquine-Resistant (W2)-Strain S. I. [3] | IC50 [3, 16] | IC50 [3, 17] | Phytotoxic activity, Lettuce (ranking) [5] | IC50 [1, 19] | IC50 [1, 20] | IC50 (in vitro [6]; [21]) | IC50 (in vitro [7]; [23]) | IC50 (in vitro [7]; [24]) | IC50 (in vitro [7]; [25]) | IC50 (in vitro [7]; [26]) | IC50 (in vitro [8]) | Phytotoxic activity, Bentgrass (ranking) [9] | Toxicity in animal models at therapeutic doses [10] | other results
C[C@@H]1CC[C@H]2[C@@H](C)C(=O)O[C@@H]3O[C@@]4(C)CC[C@@H]1[C@]32OO4 [Artemisinin, reference compound] | >850 | >1586.6 |  |  |  |  |  |  |  |  |  |  |  |  |  | Cytotoxicity to Vero Cells IC50 [2]: NC (not cytotoxic at the highest concentration tested (4760 ng/mL))
CCN(CC)CCCC(C)Nc1ccnc2cc(Cl)ccc12 (stereo not drawn) [Chloroquine, reference compound] |  |  | 310 nM | 160 ng/mL |  |  |  |  |  |  |  |  |  |  |  | IC50 ([1]; D6, read-out: Chloroquine-Sensitive (D6)-Strain IC50): 30 nM; IC50 ([1]; D6, read-out: Chloroquine-Sensitive (D6)-Strain IC50 (ng/mL)): 16 ng/mL; Cytotoxicity to Vero Cells IC50 [2]: NC (not cytotoxic at the highest concentration tested (4760 ng/mL)); Cure (mice without parasitemia till day 28 post-infection) [4, 18]: 2/5; MST (mean survival time) [4, 18]: 28 days; Survival (animals that survived day 28/total animals in group) [4, 18]: 5/5; Day of Death (post infection) [4, 18]: 28/28/28/28/28; % Parasitemia Suppression Day 5 [4, 18]: 100%; % Parasitemia Suppression Day 7 [4, 18]: 100%
CC(=O)OC1C2OC2C(C)(O)C(=O)C(C)CC=CC2C(O)C(C)=C(C)C3C(Cc4ccccc4)NC(=O)C213 [Compound 1, (3S,4R,7S,8S,9R,16S,18R,19R,20S,21S)-19,20-epoxycytochalasin C] | >128.6 | >170 | 50 nM | 28 ng/mL | 3 | 70 nM | 37 ng/mL | > 4.76 µg/mL | > 10000 nM | > 10000 nM | 8020 nM | > 10000 nM | > 10000 nM | 2 |  | IC50 (in vitro [6]; [22]): > 4.76 µg/mL; MST (mean survival time) [4, 18]: 5.2 days; Survival (animals that survived day 28/total animals in group) [4, 18]: 0/5; Day of Death (post infection) [4, 18]: 17/5/3/1/0; % Parasitemia Suppression Day 5 [4, 18]: 33.9%; % Parasitemia Suppression Day 7 [4, 18]: 71.4%; Animals that died due to drug induced toxicity ([4]; oral, 100 mg/kg/day for 3 days): Three out of 5
C=C1C(C)C2C(Cc3ccccc3)NC(=O)C23C(C=CCC(C)C(=O)C(C)(O)C2OC2C3OC(C)=O)C1O [Compound 2, (3S,4R,5S,7S,8S,9R,16S,18R,19R,20S,21S)-19,20-epoxycytochalasin D] | >216.3 | >238 | 40 nM | 20 ng/mL | 3 | 40 nM | 22 ng/mL | > 4.76 µg/mL | 7840 nM | > 10000 nM | > 10000 nM | > 10000 nM | 8400 nM | 3 |  | IC50 (in vitro [6]; [22]): > 4.76 µg/mL
CC(=O)OC1C2OC2C(C)C(=O)C(C)CC=CC2C(O)C(C)=C(C)C3C(Cc4ccccc4)NC(=O)C213 [Compound 3, (3S,4R,7S,8S,9R,16(S),18S,19S,20R,21S)-18-deoxy-19,20-epoxycytochalasin C] | >17 | >47.6 | 190 nM | 100 ng/mL | 3 | 560 nM | 280 ng/mL | > 4.76 µg/mL | 6890 nM | > 10000 nM | > 10000 nM | > 10000 nM | > 10000 nM | 4 |  | 
C=C1[C@@H](C)[C@H]2[C@H](Cc3ccccc3)NC(=O)[C@]23OC(=O)/C=C/[C@H](O)CCC[C@@H](C)C/C=C/[C@H]3[C@@H]1O [Cytochalasin B] |  |  |  |  |  |  |  |  |  |  |  |  |  |  | no toxicity | 
C=C1[C@@H](C)[C@H]2[C@H](Cc3ccccc3)NC(=O)[C@]23[C@H](OC(C)=O)/C=C/[C@@](C)(O)C(=O)[C@@H](C)C/C=C/[C@H]3[C@@H]1O [Cytochalasin D] |  |  |  |  |  |  |  |  |  |  |  |  |  |  | no toxicity | 
C[C@H]1C/C=C/[C@H]2[C@@H]3O[C@]3(C)[C@@H](C)[C@H]3[C@H](Cc4ccccc4)NC(=O)[C@]32OC(=O)O/C=C/[C@@](C)(O)C1=O [Cytochalasin E] |  |  |  |  |  |  |  |  |  |  |  |  |  |  | no toxicity | 
COc1cccc2c1C(=O)c1c(O)c3c(c(O)c1C2=O)C[C@@](O)(C(=O)CO)C[C@@H]3O[C@H]1C[C@H](N)[C@H](O)[C@H](C)O1 [Doxorubicin, reference compound] |  |  |  |  |  |  |  |  |  |  |  |  |  |  |  | IC50 [11]: 1470 nM; IC50 [12]: 2120 nM; IC50 [13]: 1830 nM; IC50 [14]: 1290 nM; IC50 [15]: 1280 nM
